PubChem BioAssay AID256 (DTP/NCI, 2004)
Values joined by “and” are separate entries in the source; they are usually repeats but may differ in a detail not shown here. Identical values can stand only once. Toxic doses and inconclusive results are not listed.

System: CD2F1 mice, L1210 leukemia ip, survival T/C
Experiment: NCI In Vivo Anticancer Drug Screen. Data for tumor model L1210 Leukemia (intraperitoneal) in CD2F1 (CDF1) mice
Conditions: endpoint: mean survival time, higher = longer survival
In short: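 Activity against a transplanted murine tumor was judged by comparing the compound group with a vehicle group. The outcome in the treated animals was divided by that in the controls.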

Structure (SMILES): c1cc2n(n1)CCN2
- T/C (dose: 8.0 mg/kg/injection, schedule: Q03HX008 (ip), vehicle: saline): 95 % of control
- T/C (dose: 8.0 mg/kg/injection, schedule: Q03HX016 (ip), vehicle: saline): 96 % of control
- T/C (dose: 8.0 mg/kg/injection, schedule: Q03HX024 (ip), vehicle: saline): 102 % of control
- T/C (dose: 16.0 mg/kg/injection, schedule: Q03HX008 (ip), vehicle: saline): 98 % of control
- T/C (dose: 16.0 mg/kg/injection, schedule: Q03HX016 (ip), vehicle: saline): 97 % of control
- T/C (dose: 16.0 mg/kg/injection, schedule: Q03HX024 (ip), vehicle: saline): 104 % of control
- T/C (dose: 25.0 mg/kg/injection, schedule: Q01DX009 (ip), vehicle: saline): 103 % of control
- T/C (dose: 32.0 mg/kg/injection, schedule: Q01DX005 (ip), vehicle: saline): 100 % of control
- T/C (dose: 32.0 mg/kg/injection, schedule: Q03HX008 (ip), vehicle: saline): 102 % of control
- T/C (dose: 32.0 mg/kg/injection, schedule: Q03HX016 (ip), vehicle: saline): 98 % of control
- T/C (dose: 32.0 mg/kg/injection, schedule: Q03HX024 (ip), vehicle: saline): 107 % of control
- T/C (dose: 50.0 mg/kg/injection, schedule: Q04DX003 (ip), vehicle: saline): 98 % of control
- T/C (dose: 50.0 mg/kg/injection, schedule: Q04DX003 (iv), vehicle: saline): 98 % of control
- T/C (dose: 64.0 mg/kg/injection, schedule: Q01DX005 (ip), vehicle: saline): 103 % of control
- T/C (dose: 64.0 mg/kg/injection, schedule: Q01DX009 (ip), vehicle: saline): 97 % of control
- T/C (dose: 64.0 mg/kg/injection, schedule: Q03HX008 (ip), vehicle: saline): 109 % of control
- T/C (dose: 64.0 mg/kg/injection, schedule: Q03HX016 (ip), vehicle: saline): 102 % of control
- T/C (dose: 64.0 mg/kg/injection, schedule: Q03HX024 (ip), vehicle: saline): 116 % of control
- T/C (dose: 100.0 mg/kg/injection, schedule: Q01DX009 (ip), vehicle: saline): 120 % of control
- T/C (dose: 100.0 mg/kg/injection, schedule: Q04DX003 (ip), vehicle: saline): 102 % of control
- T/C (dose: 100.0 mg/kg/injection, schedule: Q04DX003 (ip), vehicle: water): 120 % of control and 105 % of control
- T/C (dose: 100.0 mg/kg/injection, schedule: Q04DX003 (iv), vehicle: saline): 98 % of control
- T/C (dose: 128.0 mg/kg/injection, schedule: Q01DX001 (ip), vehicle: saline): 104 % of control
- T/C (dose: 128.0 mg/kg/injection, schedule: Q01DX005 (ip), vehicle: saline): 114 % of control
- T/C (dose: 128.0 mg/kg/injection, schedule: Q01DX009 (ip), vehicle: saline): 122 % of control
- T/C (dose: 128.0 mg/kg/injection, schedule: Q04DX003 (ip), vehicle: saline): 105 % of control
- T/C (dose: 128.0 mg/kg/injection, schedule: Q08DX002 (ip), vehicle: saline): 104 % of control
- T/C (dose: 200.0 mg/kg/injection, schedule: Q01DX009 (ip), vehicle: saline): 118 % of control
- T/C (dose: 200.0 mg/kg/injection, schedule: Q04DX003 (ip), vehicle: saline): 108 % of control
- T/C (dose: 200.0 mg/kg/injection, schedule: Q04DX003 (ip), vehicle: water): 115 % of control and 120 % of control
- T/C (dose: 200.0 mg/kg/injection, schedule: Q04DX003 (iv), vehicle: saline): 101 % of control
- T/C (dose: 256.0 mg/kg/injection, schedule: Q01DX001 (ip), vehicle: saline): 110 % of control
- T/C (dose: 256.0 mg/kg/injection, schedule: Q01DX005 (ip), vehicle: saline): 107 % of control
- T/C (dose: 256.0 mg/kg/injection, schedule: Q01DX009 (ip), vehicle: saline): 100 % of control
- T/C (dose: 256.0 mg/kg/injection, schedule: Q08DX002 (ip), vehicle: saline): 106 % of control
- T/C (dose: 400.0 mg/kg/injection, schedule: Q04DX003 (ip), vehicle: saline): 124 % of control
- T/C (dose: 400.0 mg/kg/injection, schedule: Q04DX003 (ip), vehicle: water): 153 % of control
- T/C (dose: 512.0 mg/kg/injection, schedule: Q04DX003 (ip), vehicle: saline): 159 % of control
- T/C (dose: 512.0 mg/kg/injection, schedule: Q08DX002 (ip), vehicle: saline): 165 % of control
- T/C (dose: 600.0 mg/kg/injection, schedule: Q04DX003 (ip), vehicle: water): 101 % of control

Structure (SMILES): NC(=O)C(c1cccs1)c1cccs1
- T/C (dose: 100.0 mg/kg/injection, schedule: Q04DX002 (ip), vehicle: saline with Tween-80): 93 % of control
- T/C (dose: 200.0 mg/kg/injection, schedule: Q04DX002 (ip), vehicle: saline with Tween-80): 87 % of control
- T/C (dose: 400.0 mg/kg/injection, schedule: Q04DX002 (ip), vehicle: saline with Tween-80): 90 % of control
